Test results published in patent US7910599B2 (priority 2005, dated 2011).
“Also recorded” adds a separate entry of the source.

Legend:
humans [1] = settings: highly palatable versus less pleasant tasting foods; cited from earlier work
rats = experiment: Rats kept continually on antagonist in the food, alcohol drinking; type: in vivo, rat; settings: large doses in the food, continual presence; less reduction than selective extinction with naloxone
humans [2] = settings: acute study; cited from earlier work
Male Wistar rats = experiment: Selective extinction in alcohol-experienced rats: naloxone before alcohol access, saccharin access without injection; type: in vivo, rat
Method: The example included here is a prior preclinical experiment in which the alternative opioidergically-reinforced behavior was saccharin drinking. Alcohol experienced rats had continual access to food and water. Alcohol solution was available for only an hour a day for 2 to 4 days. On the next day or two, saccharin solution instead was available. Naloxone (or saline for the control group) was injected prior to the alcohol session.
Male Wistar rats (n=26) were individually housed with daily access to 10% ethanol, with food and water always present. After 2 months prior experience, the rats were switched to having 2-4 alcohol-access days interspersed with 1 or 2 days when saccharin solution (1 g/l) was available for 1 hr. […] No injections were made prior to saccharin access.

[3] = test system: patients suffering from binge eating; settings: 50 mg once, twice or 3 times daily; cited from earlier work
[4] = continual administration; cited from earlier work
alcoholics = settings: cited from earlier work
humans [5] = settings: cited from earlier work
[6] = subcutaneous naloxone prior to alcohol access, dose reduced from 10.000 to 0.005 mg/kg

| SMILES | food intake (humans [1]) | alcohol drinking (rats) | size of an eating binge (humans [2]) | saccharin drinking in the same animals (Male Wistar rats; first three weeks) | alcohol drinking (Male Wistar rats; first three weeks, naloxone doses in the range previously found effective) | alcohol drinking in comparison with saline controls and own prior levels (Male Wistar rats; subcutaneous naloxone prior to alcohol access (10% ethanol), dose progressively reduced from 10.000 to 0.005 mg/kg) | time alcohol drinking continued to be significantly reduced (Male Wistar rats; [6]) | time alcohol drinking was reduced to nearly zero for most rats (Male Wistar rats; [6]) | treatment of binge eating versus placebo [3] | side-effects [4] | efficacy in alcoholism when given during abstinence (alcoholics; naltrexone given during abstinence) | efficacy in alcoholism when paired with alcohol drinking (alcoholics; naltrexone paired with drinking (extinction method)) | maximum days per week (naltrexone and drinking) reported by complying patients (alcoholics; three-year follow-up, mean ± SEM) | preference for saccharin (humans [5]) |
| --- | --- | --- | --- | --- | --- | --- | --- | --- | --- | --- | --- | --- | --- | --- |
| C=C1CC[C@@]2(O)[C@H]3Cc4ccc(O)c5c4[C@@]2(CCN3CC2CC2)[C@H]1O5 [nalmefene] | suppresses intake of highly palatable foods but not that of less pleasant tasting ones | significantly lowered |  |  |  |  |  |  |  |  |  |  |  |  |
| C=CCN1CC[C@]23c4c5ccc(O)c4O[C@H]2C(=O)CC[C@@]3(O)[C@H]1C5 [naloxone] |  |  | significantly reduced | significantly increased | practically abolished | strongly reduced; also recorded: significantly reduced | 8 weeks | 6 weeks |  |  |  |  |  |  |
| O=C1CC[C@@]2(O)[C@H]3Cc4ccc(O)c5c4[C@@]2(CCN3CC2CC2)[C@H]1O5 [naltrexone] |  | significantly lowered |  |  |  |  |  |  | not significantly better than placebo | liver toxicity | tended to be worse than placebo | effective | 1.5±0.4 days per week | reduces |
